From ChEMBL document CHEMBL1151346, “Alkaloids of Thalictrum XXXIV. Three New Alkaloids, Thalmirabine, Thalistine, and O-Methylthalibrine, and Others From Roots of Thalictrum minus Race B” (1980)
In brackets after ≈: the same amount, converted by molar mass.

Columns and labels:
Assay type in all cases: functional
[1] = test system: Mycolicibacterium smegmatis; assay: Antimicrobial activity against Mycobacterium smegmatis
Candida albicans = assay: Antimicrobial activity against Candida albicans
Staphylococcus aureus = assay: Antimicrobial activity against Staphylococcus aureus

SMILES | MIC [1] [µg/mL] | MIC (Candida albicans) [µg/mL] | MIC (Staphylococcus aureus) [µg/mL]
COc1cc2c(cc1OC)[C@H](Cc1ccc(Oc3cc(C[C@H]4c5cc(OC)c(OC)cc5CCN4C)ccc3OC)cc1)N(C)CC2 | 100 (≈ 157 µM) | 500 (≈ 783 µM) | 
COc1ccc2cc1Oc1ccc(cc1)C[C@H]1c3c(c(O)c(OC)c(OC)c3Oc3c4c(cc(OC)c3OC)[C@H](C2)N(C)CC4)CCN1C [THALIMIRABINE] | 100 (≈ 150 µM) |  | 
COc1ccc(C[C@H]2c3cc(OC)c(OC)c(O)c3CCN2C)cc1Oc1ccc(C[C@H]2c3cc4c(c(OC)c3CCN2C)OCO4)cc1 [THALISTINE] | 100 (≈ 150 µM) |  | 1000 (≈ 1500 µM)
